The values that follow come from patent publication US8530493B2, “Indolopyridines as Eg5 kinesin modulators” (4SC AG, priority 2006, dated 2013).

The subject of assay [1] is RKO p27 uninduced (proliferating) colon adenocarcinoma cells. Briefly: Alamar Blue cell viability assay, RKO p27 uninduced (proliferating). The assay is classed as cell-based. The note with it: Homo sapiens, RKOp27, Table B1, anti-proliferative/cytotoxic activity, 72 hours, read-out: −log EC50 RKO p27 uninduced (proliferating) (converted). Here is the method:
The anti-proliferative/cytotoxic activity of the compounds described herein can be tested on subclones of RKO human colon adenocarcinoma cells (Schmidt et al., Oncogene 19, 2423-2429; 2000) using the Alamar Blue cell viability assay (described in O'Brien et al. Eur J Biochem 267, 5421-5426, 2000). The compounds are dissolved as 10 mM solutions in DMSO and subsequently diluted in semi-logarithmic steps. DMSO dilutions are further diluted 1:100 into Dulbecco's modified Eagle's medium (DMEM) containing 10% fetal calf serum to a final concentration twice as much as the final concentration in the test. RKO subclones are seeded into 96 well flat bottom plates at a density of 4000 cells per well in a volume of 50 μl per well. 24 hours after seeding the 50 μl each of the compound dilutions in DMEM medium are added into each well of the 96 well plate. Each compound dilution is tested as triplicates. Wells containing untreated control cells are filled with 50 μl DMEM medium containing 1% DMSO. The cells are then incubated with the substances for 72 hours at 37° C. in a humidified atmosphere containing 5% carbon dioxide. To determine the viability of the cells, 10 μl of an Alamar Blue solution (Biosource) are added and the fluorescence is measured at an extinction of 544 nm and an emission of 590 nm. For the calculation of the cell viability the emission value from untreated cells is set as 100% viability and the emission rates of treated cells are set in relation to the values of untreated cells. Viabilities are expressed as % values. The Graphpad Prism program is used for the calculation of EC50 values for anti-proliferative/cytotoxic activity out of the obtained dose-response curves.
(§1) To determine the cell cycle specific mode of action, subclones of RKO colon adenocarcinoma cells (RKOp21 or RKOp27 as described by Schmidt et al. in Oncogene 19, 2423-2429; 2000) are seeded into 96 well flat bottom plates at a density of 16000 cells per well in a volume of 50 μl per well in DMEM growth medium with 10% FCS containing 10 μM Ponasterone A. 24 hours after seeding the 50 μl each of the compound dilutions in DMEM medium are added into each well of the 96-well plate. Each compound dilution is tested as triplicates. Wells containing untreated control cells are filled with 50 μl DMEM medium containing 1% DMSO. The cells are then incubated with the substances for 72 hours at 37° C. in a humidified atmosphere containing 5% carbon dioxide. To determine the viability of the cells, 10 μl of an Alamar Blue solution (Biosource) are added and the fluorescence is measured at an extinction of 544 nm and an emission of 590 nm. For the calculation of the cell viability the emission value from untreated cells is set as 100% viability and the emission rates of treated cells are set in relation to the values of untreated cells. Viabilities are expressed as % values. The Graphpad Prism program (GraphPad Software, Inc) is used for the calculation of EC50 values out of the obtained dose-response curves. Viability is compared of proliferating cells grown in the absence of the inducer Ponasterone A, versus viability of cells arrested by the expression of ectopic p27Kip1 induced by Ponasterone A.
(§2) Representative values for anti-proliferation/cytotoxicity [measured as −log EC50 (mol/l)] determined in the aforementioned assays follow from the following tables B1, B2 and B3, in which the numbers of the compounds correspond to the numbers of the examples.
In general terms: Alamar Blue is a resazurin reagent that responds to reducing activity.

Assay [2] has as its system RKO p27 induced (arrested) colon adenocarcinoma cells. Briefly: Alamar Blue cell viability assay, RKO p27 induced by Ponasterone A (arrested). Type of assay: cell-based. Conditions: Homo sapiens, RKOp27, Table B1, cells arrested by Ponasterone A-induced p27Kip1, 72 hours, read-out: −log EC50 RKO p27 induced (arrested) (converted). On the procedure: as §1, §2

Usually EC50 stands for the concentration that produces a half-maximal response.

Where only a bound is given, the exact number is not on record here.

On to `C[C@@]12Cc3c([nH]c4ccc(Cl)cc34)[C@@H](c3cccc(O)c3)N1C(=O)N(CCn1ccnc1)C2=O` (racemic) [Example 31, (3aSR,10RS)-6-Chloro-10-(3-hydroxy-phenyl)-2-(2-imidazol-1-yl-ethyl)-3a-methyl-3a,4,9,10-tetrahydro-2,9,10a-triaza-cyclopenta[b]fluorene-1,3-dione], for which the EC50 is 39.8 to 251 nM in assay [1] and at least 3.16 µM in assay [2].

On to `CC(C)NCCN1C(=O)N2[C@H](c3cccc(O)c3)c3[nH]c4ccc(Cl)cc4c3C[C@@]2(C)C1=O` (racemic) [Example 38, (3aSR,10RS)-6-Chloro-10-(3-hydroxy-phenyl)-2-(2-isopropylamino-ethyl)-3a-methyl-3a,4,9,10-tetrahydro-2,9,10a-triaza-cyclopenta[b]fluorene-1,3-dione], for which the concentration giving a half-maximal response (EC50) in assay [1] is at most 39.8 nM; in assay [2], at least 0.316 µM.

In the case of `CCN(C)CCN1C(=O)N2[C@H](c3cccc(O)c3)c3[nH]c4ccc(Cl)cc4c3C[C@@]2(C)C1=O` (racemic) [Example 40, (3aSR,10RS)-6-Chloro-2-[2-(ethyl-methyl-amino)-ethyl]-10-(3-hydroxy-phenyl)-3a-methyl-3a,4,9,10-tetrahydro-2,9,10a-triaza-cyclopenta[b]fluorene-1,3-dione], the EC50 in assay [1] was at most 39.8 nM; in assay [2], at least 3.16 µM.

As to `C[C@@]12Cc3c([nH]c4ccc(Cl)cc34)[C@@H](c3cccc(O)c3)N1C(=O)N(CCN1CCCC1)C2=O` (racemic) [Example 17, (3aSR,10RS)-6-Chloro-10-(3-hydroxy-phenyl)-3a-methyl-2-(2-pyrrolidin-1-yl-ethyl)-3a,4,9,10-tetrahydro-2,9,10a-triaza-cyclopenta[b]fluorene-1,3-dione], the EC50 in assay [1] is at most 39.8 nM; in assay [2] it was at least 3.16 µM.

Take `CCOc1ccc2[nH]c3c(c2c1)C[C@@]1(C)C(=O)N(CCN(C)C)C(=O)N1[C@@H]3c1cccc(O)c1` (racemic) [Example 23, (3aSR,10RS)-2-(2-Dimethylamino-ethyl)-6-ethoxy-10-(3-hydroxy-phenyl)-3a-methyl-3a,4,9,10-tetrahydro-2,9,10a-triaza-cyclopenta[b]fluorene-1,3-dione]: the EC50 is at most 39.8 nM in assay [1] and at least 3.16 µM in assay [2].

For `COc1ccc2[nH]c3c(c2c1)C[C@@]1(C)C(=O)N(CCN2CCC(F)(F)C2)C(=O)N1[C@@H]3c1cccc(O)c1` (racemic) [Example 34, (3aSR,10RS)-2-[2-(3,3-Difluoro-pyrrolidin-1-yl)-ethyl]-10-(3-hydroxy-phenyl)-6-methoxy-3a-methyl-3a,4,9,10-tetrahydro-2,9,10a-triaza-cyclopenta[b]fluorene-1,3-dione], the EC50 in assay [1] is 39.8 to 251 nM; in assay [2], at least 3.16 µM.

In the case of `CCOc1ccc2[nH]c3c(c2c1)C[C@@]1(C)C(=O)N(CCNC)C(=O)N1[C@@H]3c1cccc(O)c1` (racemic) [Example 41, (3aSR,10RS)-6-Ethoxy-10-(3-hydroxy-phenyl)-3a-methyl-2-(2-methylamino-ethyl)-3a,4,9,10-tetrahydro-2,9,10a-triaza-cyclopenta[b]fluorene-1,3-dione], the EC50 in assay [1] was at most 39.8 nM; in assay [2], at least 3.16 µM.

Turning to `COc1ccc2[nH]c3c(c2c1)C[C@@]1(C)C(=O)N(CCNC(C)C)C(=O)N1[C@@H]3c1cccc(O)c1` (racemic) [Example 47, (3aSR,10RS)-10-(3-Hydroxy-phenyl)-2-(2-isopropylamino-ethyl)-6-methoxy-3a-methyl-3a,4,9,10-tetrahydro-2,9,10a-triaza-cyclopenta[b]fluorene-1,3-dione], the EC50 in assay [1] is at most 39.8 nM; in assay [2], at least 3.16 µM.

In the case of `CC(C)N(C)CCN1C(=O)N2[C@H](c3cccc(O)c3)c3[nH]c4ccc(Cl)cc4c3C[C@@]2(C)C1=O` (racemic) [Example 39, (3aSR,10RS)-6-Chloro-10-(3-hydroxy-phenyl)-2-[2-(isopropyl-methyl-amino)-ethyl]-3a-methyl-3a,4,9,10-tetrahydro-2,9,10a-triaza-cyclopenta[b]fluorene-1,3-dione], the EC50 in assay [1] was at most 39.8 nM; in assay [2] it was at least 3.16 µM.

On to `CN(C)CCN1C(=O)N2[C@H](c3cccc(O)c3)c3[nH]c4ccc(OC(F)F)cc4c3C[C@@]2(C)C1=O` (racemic) [Example 43, (3aSR,10RS)-6-(1,1-Difluoro-methoxy)-2-(2-dimethylamino-ethyl)-10-(3-hydroxy-phenyl)-3a-methyl-3a,4,9,10-tetrahydro-2,9,10a-triaza-cyclopenta[b]fluorene-1,3-dione], for which the EC50 in assay [1] is at most 39.8 nM; in assay [2], at least 3.16 µM.

On to `CNCCN1C(=O)N2[C@H](c3cccc(O)c3)c3[nH]c4ccc(Cl)cc4c3C[C@@]2(C)C1=O` (racemic) [Example 28, (3aSR,10RS)-6-Chloro-10-(3-hydroxy-phenyl)-3a-methyl-2-(2-methylamino-ethyl)-3a,4,9,10-tetrahydro-2,9,10a-triaza-cyclopenta[b]fluorene-1,3-dione], for which the EC50 in assay [1] is at most 39.8 nM; in assay [2], at least 3.16 µM.

Take `CN(C)CCCN1C(=O)N2[C@H](c3cccc(O)c3)c3[nH]c4ccc(Cl)cc4c3C[C@@]2(C)C1=O` (racemic) [Example 16, (3aSR,10RS)-6-Chloro-2-(3-dimethylamino-propyl)-10-(3-hydroxy-phenyl)-3a-methyl-3a,4,9,10-tetrahydro-2,9,10a-triaza-cyclopenta[b]fluorene-1,3-dione]: the figures for the concentration giving a half-maximal response (EC50) in assay [1] and in assay [2] were at most 39.8 nM and at least 3.16 µM, respectively.

For the molecule `COc1ccc2[nH]c3c(c2c1)C[C@@]1(C)C(=O)N(CCCCN(C)C)C(=O)N1[C@@H]3c1cccc(O)c1` (racemic) [Example 14, (3aSR,10RS)-2-(4-Dimethylamino-butyl)-10-(3-hydroxy-phenyl)-6-methoxy-3a-methyl-3a,4,9,10-tetrahydro-2,9,10a-triaza-cyclopenta[b]fluorene-1,3-dione], the EC50 in assay [1] was at most 39.8 nM; in assay [2], at least 3.16 µM.

As for `CCN(C)CCN1C(=O)N2[C@H](c3cccc(O)c3)c3[nH]c4ccc(OC)cc4c3C[C@@]2(C)C1=O` (racemic) [Example 52, (3aSR,10RS)-2-[2-(Ethyl-methyl-amino)-ethyl]-10-(3-hydroxy-phenyl)-6-methoxy-3a-methyl-3a,4,9,10-tetrahydro-2,9,10a-triaza-cyclopenta[b]fluorene-1,3-dione], the EC50 is at most 39.8 nM in assay [1] and at least 3.16 µM in assay [2].

For `CCOc1ccc2[nH]c3c(c2c1)C[C@@]1(C)C(=O)N(CCN)C(=O)N1[C@@H]3c1cccc(O)c1` (racemic) [Example 45, (3aSR,10RS)-2-(2-Amino-ethyl)-6-ethoxy-10-(3-hydroxy-phenyl)-3a-methyl-3a,4,9,10-tetrahydro-2,9,10a-triaza-cyclopenta[b]fluorene-1,3-dione], the EC50 in assay [1] is at most 39.8 nM; in assay [2] it was at least 0.316 µM.

Take `COc1ccc2[nH]c3c(c2c1)C[C@@]1(C)C(=O)N(CCN2CCN(C(C)=O)CC2)C(=O)N1[C@@H]3c1cccc(O)c1` (racemic) [Example 32, (3aSR,10RS)-2-[2-(4-Acetyl-piperazin-1-yl)-ethyl]-10-(3-hydroxy-phenyl)-6-methoxy-3a-methyl-3a,4,9,10-tetrahydro-2,9,10a-triaza-cyclopenta[b]fluorene-1,3-dione]: the EC50 is 39.8 to 251 nM in assay [1] and at least 3.16 µM in assay [2].

In the case of `CCNCCN1C(=O)N2[C@H](c3cccc(O)c3)c3[nH]c4ccc(Cl)cc4c3C[C@@]2(C)C1=O` (racemic) [Example 37, (3aSR,10RS)-6-Chloro-2-(2-ethylamino-ethyl)-10-(3-hydroxy-phenyl)-3a-methyl-3a,4,9,10-tetrahydro-2,9,10a-triaza-cyclopenta[b]fluorene-1,3-dione], the EC50 in assay [1] was at most 39.8 nM; in assay [2], at least 0.316 µM.
